Measurements from ChEMBL document CHEMBL5550206, “Identification of 6-Fluorine-Substituted Coumarin Analogues as POLRMT Inhibitors with High Potency and Safety for Treatment of Pancreatic Cancer” (J Med Chem, 2024).
Calls of active or inactive are those of the source. The calls are words filed in the database; no cut-off is given here.

Key:
MIA PaCa-2 [1] = experiment: Down-regulation of COX1 gene expression in human MIA PaCa-2 cells at 0.1 to 1 uM measured after 12 hrs by RT-qPCR analysis; type: functional, cell-based; settings: dose 0.1-1 µM
MIA PaCa-2 [2] = experiment: Inhibition of colony formation in human MIA PaCa-2 cells at 5 to 200 nM incubated for 14 days by crystal violet staining based assay; type: functional, cell-based; settings: dose 5-200 nM, time 14.0 day
MIA PaCa-2 [3] = experiment: Induction of cell arrest in human MIA PaCa-2 cells assessed as accumulation of cells at S phase at 100 nM measured after 96 hrs by PI staining based flow cytometry (reference value: 16.8%); type: functional
MIA PaCa-2 [4] = experiment: Induction of cell arrest in human MIA PaCa-2 cells assessed as accumulation of cells at G1 phase at 200 nM measured after 96 hrs by PI staining based flow cytometry (reference value: 64%); type: functional
MIA PaCa-2 [5] = experiment: Induction of cell arrest in human MIA PaCa-2 cells assessed as accumulation of cells at G2 phase at 200 nM measured after 96 hrs by PI staining based flow cytometry (reference value: 11.2%); type: functional
MIA PaCa-2 [6] = experiment: Induction of cell arrest in human MIA PaCa-2 cells assessed as accumulation of cells at G2 phase at 500 nM measured after 96 hrs by PI staining based flow cytometry (reference value: 11.2%); type: functional
MIA PaCa-2 [7] = experiment: Induction of cell arrest in human MIA PaCa-2 cells assessed as early apoptotic cells at 25 nM measured after 4 days by Annexin V-FITC and propidium iodide (PI) staining based assay (reference value: 1.07%); type: functional; settings: time 4 day
MIA PaCa-2 [8] = experiment: Induction of cell arrest in human MIA PaCa-2 cells assessed as late apoptotic cells at 50 nM measured after 4 days by Annexin V-FITC and propidium iodide (PI) staining based assay (reference value: 3.23%); type: functional; settings: time 4 day
MIA PaCa-2 [9] = experiment: Induction of cell arrest in human MIA PaCa-2 cells assessed as necrotic cells at 50 nM measured after 4 days by Annexin V-FITC and propidium iodide (PI) staining based assay (reference value: 0.82%); type: functional; settings: time 4 day
MIA PaCa-2 [10] = experiment: Induction of cell arrest in human MIA PaCa-2 cells assessed as necrotic cells at 200 nM measured after 4 days by Annexin V-FITC and propidium iodide (PI) staining based assay (reference value: 0.82%); type: functional; settings: time 4 day
MIA PaCa-2 [11] = experiment: Induction of cell arrest in human MIA PaCa-2 cells assessed as viable cells at 500 nM measured after 4 days by Annexin V-FITC and propidium iodide (PI) staining based assay (reference value: 94.9%); type: functional; settings: MIA PaCa-2, 96 h, time 4 day, read-out: Activity
MIA PaCa-2 [12] = experiment: Induction of cell arrest in human MIA PaCa-2 cells assessed as late apoptotic cells at 500 nM measured after 4 days by Annexin V-FITC and propidium iodide (PI) staining based assay (reference value: 3.23%); type: functional; settings: time 4 day
PANC-1 = experiment: Antiproliferative activity against human PANC-1 cells assessed as cell viability measured after 168 hrs incubation by SRB assay; type: functional, cell-based; settings: PANC-1, 168 h

For `CCN(CC)C(=O)[C@@H](C)Oc1cc2oc(=O)cc(-c3ccccc3C)c2cc1F`, the Activity (MIA PaCa-2 [1]) was “Active”, the inhibition (MIA PaCa-2 [2]) was “Active” and the Activity (MIA PaCa-2 [3]) was 16.7%. The Activity (MIA PaCa-2 [4]) was 62.4%, the Activity (MIA PaCa-2 [5]) was 13% and the Activity (MIA PaCa-2 [6]) was 11.6%. For the same compound, the Activity (MIA PaCa-2 [7]) was 1.4%, the Activity (MIA PaCa-2 [8]) was 4.02% and the Activity (MIA PaCa-2 [9]) was 0.76%. The Activity (MIA PaCa-2 [10]) was 0.83%, the viability at 0.5 µM (MIA PaCa-2 [11]) was 94.3% and the Activity (MIA PaCa-2 [12]) was 3.69%. The IC50 (PANC-1) was 198 nM.
